Measured values: PMC9714824, “Hexapeptides from mammalian inhibitory hormone hunt activate and inactivate nematode reproduction” (PLOS ONE, 2022)

What was measured:
DU145 cells = assay: MTS viable cell assay, DU145 (Epistem); format: cell-based, human; details: in words
Method: Further assays on human prostate cancer cells were conducted at a contract research organisation (Epistem, Manchester, UK). LNCaP or DU145 cells seeded at 3,000 cells/well across a 96-well plate were cultured in RPMI (phenol red free), 10% FCS, 1% sodium pyruvate, Pen/strep and L-glutamine for 24h before exposure to peptides, at a single dose level in the case of LNCaPs or multiple dose levels in the case of DU145s. (For dose levels see Results.) Controls received vehicle (1% PBS). For the DU145s peptide administration was repeated after 24h. 72h after the first administration (DU145s) or only administration (LNCaP) total viable cell numbers were measured colorimetrically (MTS) using a CellTiter 96 AQueous One Solution Cell Proliferation Assay (Promega, Southampton, UK), following manufacturer’s instructions. Briefly, the media on the plates was replaced with the CellTiter reagent diluted 1:5 in DMEM. The plates were returned to the incubator for 3 hours before reading absorbance at 492 nm on a FLUORstar OPTIMA (BMG Labtech). CellTiter data are the absorbance minus background values (CellTiter plus DMEM), expressed as (OD mean +/− SEM). Statistical analysis was by ANOVA, Dunnett’s multiple comparisons test.

[1] = test system: human marrow derived mesenchymal stem cells (hMSCs); assay: Peptide immobilisation studies, hMSC proliferation (CyQuant) and FACS; format: cell-based; details: alanine substitution study; for Mean cell number: N-terminally tethered, seeding 5,000 cells per well, CyQuant, mean +/− SEM, n = 3
Text: Could the antiproliferative activity in vitro of EPL001 in solution be more predictably evoked and investigated more readily if the peptide is instead tethered to the cell culture’s substratum? […] In the first study EPL001 was immobilised by either its N terminus or C terminus and human stem cells exposed accordingly. This followed a confirmation of dissolved EPL001’s antiproliferative activity in the same laboratory (JAH). In the second study, aa sections of EPL001 were substituted with alanine strings prior to tethering, to define a functional biological motif. Into the base of each well of a 24-well plate was inserted a glass coverslip (13mm diameter, borosilicate glass, SLS, Nottingham, UK), upon the upper surface of which had been immobilised an individual peptide using a bioconjugate technique. During preparation of the coverslips, the surfaces were modified with carboxyl (−COOH) or amine (−NH2) groups separately using a published method. The carboxyl on the coverslips or at the end of the peptide sequence were reacted with NHS in the presence of EDC, resulting in a semi-stable NHS ester, which could then be reacted with primary amines (−NH2) on the coverslips or at the end of the peptide sequences to form amide crosslinks. For the carboxyl modified coverslips, the final peptide grafted on to the surface via its NH2 terminus was in the form Glass-CO-NH-Peptide. For the amine modified coverslips, the final peptide grafted on to the surface via its COOH terminus was in the form Glass-NH-CO-Peptide. The concentration of the peptides across the glass was approximately […]. Uncoated glass was used as the reference control. Treatments were in triplicate (i.e. n = 3). The cells used were human marrow derived mesenchymal stem cells (hMSCs, Lonza, Slough, UK, cat No PT-2507). In the EPL001-terminus study they were seeded at 10,000 cells per well; in the alanine substitution study the density was 5,000 cells per well. The cells were maintained in DMEM with 10% FSC. EPL001 and three alanine-substituted versions of it were deployed separately: MKPLTGKVKEFNNI (EPL001), AAAAAGKVKEFNNI (EPL590), MKPLTAAAAEFNNI (EPL545) and MKPLTGKVKEAAAA (EPL104). The peptides in the alanine substitution study were N-terminally tethered to the substrate. Cell numbers were measured by CyQuant® (Invitrogen, Paisley, UK). […] Statistical analysis was by ANOVA using SPSS software.
Four 14-aa peptides were synthesised: MKPLTGKVKEFNNI (EPL001), AAAAAGKVKEFNNI (EPL590), MKPLTAAAAEFNNI (EPL545) and MKPLTGKVKEAAAA (EPL104). The peptides were generated from l-isomer amino acids by solid phase peptide synthesis (Model 9050, Milligen). All peptides were N-terminally tethered to the substrate by a bioconjugate technique. MSCs were derived from human bone marrow and maintained in DMEM with 10% FSC. Cells were seeded on peptide treated surfaces including a glass control in a 24-well plate with cell density 5 x 10^3. The growth inhibitory activity was examined via cell proliferation assays and cell cycle analysis, using PI and Ki-67 staining. The cell phenotype and viability (7-AAD) were analysed by flow cytometry.

PC3 cells = assay: MTS colorimetric viable cell assay, PC3; format: cell-based, human; details: PC3; 30 μM; 27h; MTS, 492 nm; triplicate
Method: (§1) Assays involving a range of peptides from 14mer down to 6mers assessed total viable PC3 or PNT2 cells using a 96-well plate MTS colorimetric assay (CellTiter 96 Aqueous One Solution Cell Proliferation Assay, Promega, Southampton, UK), with absorbance measured at 492 nm. Cells were seeded at 8,000 per well and grown for 27h. Peptides were administered at the outset to a final concentration of 30 μM (in 2 μl) to samples in triplicate. (A higher dosage was used than in the 14mer peptides study to shorten the timecourse of response.) Controls received buffer. Data are OD mean +/ − SEM, with statistical analysis by two tailed t-test. A time course study of the 14mers on PC3s, using the same technique, involved measurements at 24h and 48h.
(§2) Fig 5 Effects of a range of peptides on human prostate cancer cell growth in vitro. Assays involved a range of peptides from 14mers down to 6mers (Table 1), with viable cells assessed using a 96-well plate MTS colorimetric assay. Absorbance measured at 492 nm. Cells were seeded at 8,000 per well and grown for 27h. Peptides were administered at the outset to a final concentration of 30 μM (in 2 μl) to samples in triplicate. Controls received buffer. Data are OD mean +/- SEM, with statistical analysis by two tailed t-test. * p<0.05; **p<0.025.

PNT2 cells = assay: MTS colorimetric viable cell assay, PNT2; format: cell-based, human; details: 30 μM, 27h, 492 nm, triplicate
Method: as §1, §2

Caenorhabditis elegans = details: in words; cited from earlier work
Text: As a control compound there was synthesized EPL030, having the aa sequence KLKMNGKNIEPVFT. This is a scrambling of EPL001’s sequence, based on cards drawn at random by one of us (CRM). […] The figures for fecundity were EPL001 +43 ... || Returning to EPL030, the scrambled-sequence EPL001 comparator, this has engendered perplexity by displaying the same activity as EPL001 across multiple mammalian systems. Thus, EPL030 suppressed human prostate cancer cells in vitro more than EPL001 in two laboratories and the proliferation of rat bone marrow cells in vitro in a third.

hMSCs = test system: hMSCs; parameters: method as in earlier work; details: EPL001 0.15µM or EPL140 15µM, three days; cited from earlier work
[2] = test system: hDPSC (Human Dental Pulp Derived Mesenchymal-Like Stem/Progenitor Cells); parameters: method as in earlier work; details: EPL001 0.15µM or EPL140 15µM, three days; cited from earlier work
Steinernema siamkayai [3] = assay: Steinernema siamkayai reproduction and development on lipid agar plates with hexapeptides; format: in vivo; parameters: key to Infective juveniles / Adults: counts per plate, scaled from 0.05 ml subsamples to 20 ml
Text: (§3) The attempt was made here to replicate prior fecundity work in another species of nematode, the entomopathogenic (insect slaying) Steinernema siamkayai. Species confirmation involved standard morphological and molecular techniques (S3 File, Nematodes). S. siamkayai is a biocontrol agent of potential economic significance in global agriculture, reducing the need for pesticides. Crucial for deployment is the production of ‘infective juveniles’. These forms penetrate the larvae of insect pests, releasing a bacterium, Xenorhabdus spp., which ultimately kills the larvae. Stock solutions (5 mg mL^-1) of EPL036 (IEPVFT) and EPL630 (KLKMNG) were made up and stored at −20 °C. Lipid Agar plates were prepared by pouring 5 ml media in 60 mm plastic Petri dishes. The plates were inoculated with an overnight-grown bacterial culture of Xenorhabdus spp. (10^9 cfu/ml) at 100 μl/plate and incubated at 28 °C for 24h. Xenorhabdus bacteria are symbiotically associated with S. siamkayai. While multiplying, Xenorhabdus metabolises the constituents of the lipid agar and the resulting by-products are the food supplement for the nematodes that triggers the worms to grow and multiply. From the stock solutions, peptides were introduced individually into the centre of the Lipid Agar plates with Xenorhabdus lawn. Two concentrations of peptide were used, 4 and 8 μL of the 5 mg mL^-1 stock peptide solutions (making 20 and 40 μg of peptide per plate in total, respectively, i.e. ~6 and ~12 μM). Each peptide solution was uniformly spread using an L shaped spreader and allowed to absorb into the agar plate for 10 minutes. Nematodes were harvested beforehand as follows. Third-stage infective juveniles (IJs) of S. siamkayai were used to infect fourth instar Galleria larvae. Following larval death, the Galleria cadavers were placed on a White’s Trap to harvest fresh progeny within 5–6 days. After storage in sterile water, these new-generation IJs were concentrated and inoculated on the bacterial plates on Day 1 at 500 and 1000 IJs /plate. The eight treatments (two inocula at two peptide concentrations) and two controls (two inocula without peptides) were replicated (x3) and incubated at 28 °C. Observations of behaviour and morphology were made at intervals throughout the study, then on Day 5 (i.e. after 4 units of 24h) the nematodes were harvested. Two ml of distilled water was poured on each Petri dish and gently stirred to release the nematodes from the surface. The surface washings containing suspended nematodes were collected in a standard volume of 20 ml of distilled water. The number of mature adults (male and female) and the second-generation juveniles (J1, J2, J3 and pre-adults) were counted using a dissecting microscope (x10 magnification, 4 fields) in 0.05 ml subsamples (x3) and multiplied up to the standard volume of 20 ml.
Fig 2 Developmental impact on Steinernema siamkayai of hexapeptides after 4 days. INOCULUM = founding population of infective juveniles (IJs). ‘Infective juveniles’ on the vertical axis are mostly second-generation IJs. Peptides applied at the start of the study were EPL036 = IEPVFT, […] = KLKMNG. Total = Adults + Infective juveniles. Data are mean +/- SEM (average of 3 replicates). Statistical analysis: ANOVA. Control bars are doubly represented for ease of comparison. Note different vertical axes. […]

Steinernema siamkayai [4] = assay: Nematode pilot study fecundity (S3 Table 1); format: in vivo; details: inoculum 5 IJs
Text: as §3
Mean number of A) Infective juveniles and B) Adults following inoculation of Petri dishes treated with EPL036 and EPL630 at 4 µL and 8 µL and an untreated control; Petri dishes were initially inoculated with 5 infective juveniles of Steinernema siamkayai following the method used in the main manuscript (Single way ANOVA presented beneath each data set).

MKPVFNNI [EPL801, EPL601 with all of the C-terminal triplet NNI from sSgII-70]
Cell inhibitory activity (DU145 cells): inactive

MKPLTGKVKEAAAA [EPL104, Substituted EPL001; alanines 11–14]
Mean cell number below that of EPL001-N ([1]; 14 days): 16% | Cell number vs Glass ([1]; Day 7): −29% | Cell number vs Glass ([1]; Day 14): −37% | Number of cells in the G0/G1 phase ([1]; FACS, PI, 86% for glass control): 90% | Mean cell number ([1]; Day 7): 10,010 +/−4,427 | Mean cell number ([1]; Day 14): 16,736 +/−1,302 | Ki67 staining, % of cells ([1]; at termination, control cells 26.95%): 12.69%

MLKTGEKPV [EPL901, first 9 aa of EPL143, from sSgII’s second sorting domain]
Difference in percentage terms between control and test OD means (PC3 cells): −21.2% | Difference in percentage terms between control and test OD means (PNT2 cells): −28.9%

KLKNMGNKIEPVFT [EPL040, Scrambled EPL001 control]
Fecundity effect in C. elegans (Caenorhabditis elegans): anti-fecundity

MKPLTAAAAEFNNI [EPL545, Substituted EPL001; alanines 6–9]
Cell number vs Glass ([1]; Day 7): −29% | Cell number vs Glass ([1]; Day 14): −32% | Mean cell number ([1]; Day 7): 10,007 +/−3,281 | Mean cell number ([1]; Day 14): 18,055 +/−1,771

MLKTGEKPNKFNNI [EPL140, Variant of human model compound EPL141, with KF instead of FK]
Bmal1 expression (hMSCs): ↑ | OCN expression (hMSCs): ↓ | PPARγ expression (hMSCs): ↓↓ | Per2 expression (hMSCs): ↓ | Rev-ErbA expression (hMSCs): ↓ | Sox9 expression (hMSCs): ↓↓ | Bmal1 expression [2]: ↑↑ | OCN expression [2]: ↓↓ | PPARγ expression [2]: ↓ | Per2 expression [2]: ↑↑ | Rev-ErbA expression [2]: ↓ | Sox9 expression [2]: (↑)

KLKMNG [EPL630, KLKMNG, EPL030 Front 6]
Adults (Steinernema siamkayai [3]; S3 Table 2, 8 µL, inoculum 500, mean of 3 reps): 363 | Egg production in females (Steinernema siamkayai [3]; compared with untreated controls, 48h exposure (Fig 3)): markedly below that of controls | Adults as % of the population at termination (Steinernema siamkayai [3]; controls ~23%): 26–29% | Time after incubation to fully grown males and females (Steinernema siamkayai [3]; observational): 48 h | Time for infective juveniles to transform into pre-adults (Steinernema siamkayai [3]; observational): about 36 h | Adults (Steinernema siamkayai [4]; 4 µL, mean of 9 reps): 1.9 | Infective juveniles (Steinernema siamkayai [4]; 4 µL, mean of 9 reps): 10.1 | Adults (Steinernema siamkayai [4]; 4 µL, rep 1): 1 | Adults (Steinernema siamkayai [4]; 4 µL, rep 2): 1 | Adults (Steinernema siamkayai [4]; 4 µL, rep 3): 2 | Adults (Steinernema siamkayai [4]; 4 µL, rep 4): 2 | Adults (Steinernema siamkayai [4]; 4 µL, rep 5): 2 | Adults (Steinernema siamkayai [4]; 4 µL, rep 6): 3 | Adults (Steinernema siamkayai [4]; 4 µL, rep 7): 2 | Adults (Steinernema siamkayai [4]; 4 µL, rep 8): 2 | Adults (Steinernema siamkayai [4]; 4 µL, rep 9): 2 | Adults (Steinernema siamkayai [4]; 8 µL, rep 1): 4 | Adults (Steinernema siamkayai [4]; 8 µL, rep 2): 5
